Reference: patent US12397031B2, “Lonicera japonica flower water extract-containing pharmaceutical composition for preventing or treating Helicobacter pylori infection” (GREEN CROSS WELLBEING CORPORATION, priority 2018, dated 2025)

What was measured:
Helicobacter pylori = assay: Selective antibacterial effect on Helicobacter pylori versus Escherichia coli and Staphylococcus aureus; type: cell-based; conditions: under the same condition
[1] = tested on: Helicobacter pylori (ATCC43504) strain; assay: Antibacterial activity on Helicobacter pylori, paper disc clear zone; type: cell-based; conditions: 20 μl on 6 mm paper disc, 72 hours, pure inhibition zone
Description: A Helicobacter pylori (ATCC43504) strain was smeared in a Brucella Agar medium containing 10% horse serum, and cultured for 3 days in an incubator of 37° C. and 10% CO: conditions. […] The Examples and Comparative Examples were cultured for 72 hours in an incubator of 37° C. and 10% CO: conditions, and then diameters of generated clear zones were measured and diameters of pure inhibition zones removing perforated diameters were shown in Table 3.

## C=C[C@H]1[C@H](O[C@@H]2O[C@H](CO)[C@@H](O)[C@H](O)[C@H]2O)OC=C(C(=O)OC)[C@H]1CC(=O)O [Secoxyloganin, secoxyloganin]
Helicobacter pylori
  selective antibacterial effect on Helicobacter pylori than the antibacterial effect on Escherichia coli and Staphylococcus aureus: ≥ 20 times
[1]; 0.1 mg/ml
  Clear zone (mm): 5 mm
[1]; 1 mg/ml
  Clear zone (mm): 9 mm
[1]; 10 mg/ml
  Clear zone (mm): 13 mm
